The text below walks through data of patent publication US12545718B2 (priority 2019, dated 2026).

In this experiment the test system is B/Malaysia/2506/04 virus. Set-up: species or system BALB/c mice. The settings on record: mouse, in vivo.

Turning to `CCOC(=O)C1=C[C@@H](OC(CC)CC)[C@H](NC(C)=O)[C@@H](N)C1` [oseltamivir, Oseltamivir phosphate], the weight loss result is reported as “does not protect from weight loss”.
